Measurements: article PMC9768162, “Synthesis of macrocyclic nucleoside antibacterials and their interactions with MraY” (Nature Communications, 2022)
In brackets after ≈: the same amount, converted by molar mass. Several values for one entry are separate records, joined by “and”; a condition that tells them apart may be missing. Equal entries are not always repeated. Where two headings read alike, the source gives them in different places.

Key:
E. faecium = experiment: Antibacterial activity, MIC by microdilution broth method (CLSI); format: cell-based, Enterococcus faecium; conditions: Enterococcus faecium, ATCC35667, 20 h, E. faecium ATCC 35667; CA-MHB, 37 °C, 20 h; read-out: MIC
S. aureus [1] = experiment: as above; format: cell-based, Staphylococcus aureus; conditions: Staphylococcus aureus, ATCC29213, 20 h, S. aureus ATCC 29213; CA-MHB, 37 °C, 20 h
K. pneumoniae = experiment: as above; format: cell-based; conditions: Klebsiella pneumoniae, ATCC13883; K. pneumoniae ATCC 13883; CA-MHB, 37 °C, 20 h
A. baumannii = experiment: as above; format: cell-based; conditions: Acinetobacter baumannii, ATCC19606; A. baumannii ATCC 19606; CA-MHB, 37 °C, 20 h
P. aeruginosa = experiment: as above; format: cell-based; conditions: Pseudomonas aeruginosa, ATCC27853; P. aeruginosa ATCC 27853; CA-MHB, 37 °C, 20 h
E. cloacae = experiment: as above; format: cell-based; conditions: Enterobacter cloacae, ATCC13047; E. cloacae ATCC 13047; CA-MHB, 37 °C, 20 h
M. tuberculosis = experiment: MIC in 7H9 liquid medium, 2 weeks; format: cell-based; conditions: Mycobacterium tuberculosis, 336 h, M. tuberculosis H37Rv, 37 °C, minimum concentration inhibiting at least 50% of growth
M. avium = experiment: MIC in 7H9 liquid medium, 2 weeks; format: cell-based; conditions: Mycobacterium avium, ATCC25291, 336 h, M. avium ATCC 25291, 37 °C, minimum concentration inhibiting at least 50% of growth
Gram-positive bacteria = experiment: Antibacterial activity against Gram-positive bacteria; format: cell-based; conditions: for antibacterial activity against Gram-positive bacteria: such as S. aureus and E. faecium
[2] = test system: Gram-negative bacterial strains; experiment: Antibacterial activity against Gram-negative bacteria; format: cell-based; conditions: four Gram-negative bacterial strains examined
MraYAA = MraYAA (Aquifex aeolicus, UniProt O66465); experiment: UMP-Glo assay; conditions: for Normalized (UMP / Lipid I formed minus no-enzyme average), source data of Fig. 7a: replicates 1-3
E. coli = experiment: Antibacterial activity, MIC by microdilution broth method (CLSI); conditions: E. coli ATCC 25922; CA-MHB, 37 °C, 20 h
[3] = molecular target: T1, MraYSA (S. aureus MraY enzyme) (Staphylococcus aureus, UniProt Q2FZ93); experiment: Fluorescence-based MraY inhibitory assay (dansylated Park's nucleotide); conditions: for MraYSA activity, source data of Fig. 7b, average: average of n=1-3
T1 sequence (Q2FZ93 1-321): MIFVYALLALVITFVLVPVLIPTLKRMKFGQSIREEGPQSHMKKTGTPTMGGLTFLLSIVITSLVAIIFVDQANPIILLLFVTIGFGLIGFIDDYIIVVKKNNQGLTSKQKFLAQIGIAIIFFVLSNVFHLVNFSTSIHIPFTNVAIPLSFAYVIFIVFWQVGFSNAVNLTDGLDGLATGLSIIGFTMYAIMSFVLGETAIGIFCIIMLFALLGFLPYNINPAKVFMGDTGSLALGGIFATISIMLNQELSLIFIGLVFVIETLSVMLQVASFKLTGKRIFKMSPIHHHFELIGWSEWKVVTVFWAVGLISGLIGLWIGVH

S. aureus [4] = conditions: S. aureus ATCC 29213; cited from earlier work
[5] = molecular target: T1, MraYSA (S. aureus MraY enzyme); design: His tag (inferred from His-Trap purification); made in house; host or cells: E. coli; method as in PMID 27622529; conditions: read-out: MraYSA inhibitory activity IC50; cited from earlier work

Sequence of MraYAA (O66465 whole entry): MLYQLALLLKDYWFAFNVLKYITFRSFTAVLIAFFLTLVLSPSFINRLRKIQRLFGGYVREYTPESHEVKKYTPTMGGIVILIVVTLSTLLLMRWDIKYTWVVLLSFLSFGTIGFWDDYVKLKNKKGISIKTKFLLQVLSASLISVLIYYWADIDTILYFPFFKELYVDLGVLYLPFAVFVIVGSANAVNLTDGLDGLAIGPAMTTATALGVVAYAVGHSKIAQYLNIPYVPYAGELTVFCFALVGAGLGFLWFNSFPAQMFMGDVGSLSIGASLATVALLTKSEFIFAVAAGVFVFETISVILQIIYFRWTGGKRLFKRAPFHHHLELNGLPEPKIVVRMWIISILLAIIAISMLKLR

SMILES	MIC (E. faecium) [µg/mL]	MIC (S. aureus [1]) [µg/mL]	MIC (K. pneumoniae) [µg/mL]	MIC (A. baumannii) [µg/mL]	MIC (P. aeruginosa) [µg/mL]	MIC (E. cloacae) [µg/mL]	MIC (M. tuberculosis) [µg/mL]	MIC (M. avium) [µg/mL]	antibacterial activity against Gram-positive bacteria (Gram-positive bacteria)	antibacterial activity against Gram-negative bacterial strains [2]	IC50 (MraYAA) [nM]	Normalized (UMP / Lipid I formed minus no-enzyme average), source data of Fig. 7a (MraYAA; inhibitor concentration 0.1)	Normalized (UMP / Lipid I formed minus no-enzyme average), source data of Fig. 7a (MraYAA; inhibitor concentration 0.4)	Normalized (UMP / Lipid I formed minus no-enzyme average), source data of Fig. 7a (MraYAA; inhibitor concentration 1)	Normalized (UMP / Lipid I formed minus no-enzyme average), source data of Fig. 7a (MraYAA; inhibitor concentration 5)	Normalized (UMP / Lipid I formed minus no-enzyme average), source data of Fig. 7a (MraYAA; inhibitor concentration 50)	MIC (E. coli) [µg/mL]	IC50 [3] [nM]	MraYSA activity, source data of Fig. 7b, average ([3]; compound 0.0001 µM)	MraYSA activity, source data of Fig. 7b, average ([3]; compound 0.001 µM)	further results
CCCCCCCCCCCCCCCC(=O)O[C@@H]1[C@@H]2CN(C[C@@H]1O)[C@H](C(=O)O)[C@@H]([C@H]1O[C@@H](n3ccc(=O)[nH]c3=O)[C@H](O)[C@@H]1O)O[C@@H]1O[C@H](CN2)[C@@H](O)[C@H]1O [SPM-1]	4 (≈ 5.1 µM)	2 (≈ 2.55 µM)	> 64	> 64	> 64	> 64	16 (≈ 20.4 µM)	2 (≈ 2.55 µM)	active	inactive	170	22.1835 and 21.2199 and 20.7564	6.5859 and 6.3347 and 6.5433	4.5308 and 4.5928 and 4.1831	0.1572 and 0.6868 and 0.8992	0.4734 and -0.0522 and 0.3348	>64	9.1	94.43	84.3881	MIC (Gram-positive bacteria; range over S. aureus and E. faecium of Table 1, read-out: MIC against the Gram-positive pathogens): 2 to 4 µg/mL (≈ 2.55 to 5.1 µM); Normalized (UMP / Lipid I formed minus no-enzyme average), source data of Fig. 7a (MraYAA; inhibitor concentration 0.025): 27.4002 and 27.6068 and 25.0152; Normalized (UMP / Lipid I formed minus no-enzyme average), source data of Fig. 7a (MraYAA; inhibitor concentration 0.05): 23.6062 and 21.9589 and 21.8339; Normalized (UMP / Lipid I formed minus no-enzyme average), source data of Fig. 7a (MraYAA; inhibitor concentration 0.2): 13.2781 and 11.6659 and 13.2137; Normalized (UMP / Lipid I formed minus no-enzyme average), source data of Fig. 7a (MraYAA; inhibitor concentration 0.3): 8.4302 and 9.0267 and 7.4669; Normalized (UMP / Lipid I formed minus no-enzyme average), source data of Fig. 7a (MraYAA; inhibitor concentration 0.8): 3.6877 and 2.5343 and 3.6699; MraYSA activity, source data of Fig. 7b, average ([3]; compound 0.01 µM): 49.3175; MraYSA activity, source data of Fig. 7b, average ([3]; compound 0.1 µM): 11.924; MraYSA activity, source data of Fig. 7b, average ([3]; compound 1 µM): 3.067; MraYSA activity, source data of Fig. 7b, average ([3]; compound 10 µM): 2.786; MraYSA activity, source data of Fig. 7b, average ([3]; compound 100 µM): 7.015
CCCCCCCCCCCCCCCC(=O)O[C@@H]1[C@H](O)CN2C[C@H]1NC[C@H]1O[C@@H](O[C@H]([C@H]3O[C@@H](n4ccc(=O)[nH]c4=O)[C@H](O)[C@@H]3O)[C@H]2C(=O)O)[C@H](O)[C@@H]1O [SPM-2]	16 (≈ 20.4 µM)	> 64	> 64	> 64	> 64	> 64	> 32	16 (≈ 20.4 µM)	active	inactive	9200	34.6720 and 31.83 and 31.8908	29.3499 and 29.56 and 31.6856	31.9846 and 31.04 and 28.7608	29.9822 and 25.5 and 23.2193	4.6362 and 4.593 and 4.08	>64	330	104.091	99.892	MIC increase relative to SPM-1 (Gram-positive bacteria; Gram-positive pathogens): 4 fold; Normalized (UMP / Lipid I formed minus no-enzyme average), source data of Fig. 7a (MraYAA; inhibitor concentration 2.5): 26.0302 and 21.75 and 21.7826; Normalized (UMP / Lipid I formed minus no-enzyme average), source data of Fig. 7a (MraYAA; inhibitor concentration 12.5): 17.4410 and 14.04 and 12.8545; Normalized (UMP / Lipid I formed minus no-enzyme average), source data of Fig. 7a (MraYAA; inhibitor concentration 25): 11.3284 and 8.499 and 7.57; Normalized (UMP / Lipid I formed minus no-enzyme average), source data of Fig. 7a (MraYAA; inhibitor concentration 70): 3.9512 and 2.534 and 2.592; Normalized (UMP / Lipid I formed minus no-enzyme average), source data of Fig. 7a (MraYAA; inhibitor concentration 140): 2.0542 and 1.162 and 1.464; MraYSA activity, source data of Fig. 7b, average ([3]; compound 0.01 µM): 103.991; MraYSA activity, source data of Fig. 7b, average ([3]; compound 0.1 µM): 72.6566; MraYSA activity, source data of Fig. 7b, average ([3]; compound 1 µM): 26.5839; MraYSA activity, source data of Fig. 7b, average ([3]; compound 10 µM): 7.955; MraYSA activity, source data of Fig. 7b, average ([3]; compound 100 µM): 4.902
CCCCCCCCCCCCCCCCC[C@H]1CN(C)[C@@H]([C@H](O[C@@H]2O[C@H](CN)[C@@H](O)[C@H]2O)[C@H]2O[C@@H](n3ccc(=O)[nH]c3=O)[C@H](O)[C@@H]2O)C(=O)N(C)[C@@H]1C(=O)O [Carbacaprazamycin]	–	–	–	–	–	–	–	–	–	–	–	–	–	–	–	–	–	–	–	–	MIC (S. aureus [4]): 8 µg/mL (≈ 10 µM); IC50 [5]: 3.8 nM
